From patent US11352362B2, “Polymorph of rucaparib camsylate” (SHANGHAI BEGREAT PHARMATECH, priority 2018, dated 2022)
Where a name gives a salt, the structure may show the parent alone.

Legend:
[1] = Solubility of rucaparib camsylate crystal forms in simulated gastric juice; assay type: physicochemical; conditions: for Solubility under low pH conditions: such as pH 1.2; for Solubility in SGF: about 1 mg in 1 mL, shaking 20 min, filtered, HPLC
Protocol: Determination of the solubility of rucaparib camsylate in simulated gastric juice. Weigh about 1 mg of the powder of Form A, Form B, Form C and Form D of rucaparib camsylate in a 2-mL tube, then add 1 mL of simulated gastric juice (Prepared by adding diluted hydrochloric acid 16.4 ml, 800 ml of water and 10 g of pepsin. After shaking, add water to volume of 1000 ml). After shaking the suspension for 20 min, it was filtered through a needle filter to obtain a clear solution. The rucaparib camsylate content in the solution was analyzed by HPLC method.

[2] = Stress stability of crystal form D (XRPD evaluation); assay type: physicochemical
Protocol: In order to evaluate the physical stability of the crystal form D, experiments on the stress stability for the crystal form D were performed. The physical stability of the crystal form D under high temperature, high humidity and light stress conditions was investigated. The experimental conditions of the stress stability are as follows: [table] The crystal form D was placed in the above stress conditions. After sampling at the time point, the stability sample was evaluated by XRPD.

## CNCc1ccc(-c2[nH]c3cc(F)cc4c3c2CCNC4=O)cc1 [Form A, 8-fluoro-2-{4-[(methylamino)methyl]phenyl}-1,3,4,5-tetrahydro-6H-azepino[5,4,3-cd]indol-6-one ((1S,4R)-7,7-dimethyl-2-oxobicyclo[2.2.1]hept-1-yl) methanesulfonic acid salt]
[1]
  Solubility under low pH conditions: low solubility
[1]; simulated gastric juice
  Solubility in SGF: 100 µg/mL

## CNCc1ccc(-c2[nH]c3cc(F)cc4c3c2CCNC4=O)cc1 [Form B, 8-fluoro-2-{4-[(methylamino)methyl]phenyl}-1,3,4,5-tetrahydro-6H-azepino[5,4,3-cd]indol-6-one ((1S,4R)-7,7-dimethyl-2-oxobicyclo[2.2.1]hept-1-yl) methanesulfonic acid salt]
[1]
  Solubility under low pH conditions: low solubility
[1]; simulated gastric juice
  Solubility in SGF: 130 µg/mL

## CNCc1ccc(-c2[nH]c3cc(F)cc4c3c2CCNC4=O)cc1 [Form C, 8-fluoro-2-{4-[(methylamino)methyl]phenyl}-1,3,4,5-tetrahydro-6H-azepino[5,4,3-cd]indol-6-one ((1S,4R)-7,7-dimethyl-2-oxobicyclo[2.2.1]hept-1-yl) methanesulfonic acid salt]
[1]
  Solubility under low pH conditions: low solubility
[1]; simulated gastric juice
  Solubility in SGF: 110 µg/mL

## CNCc1ccc(-c2[nH]c3cc(F)cc4c3c2CCNC4=O)cc1 [Form D, 8-fluoro-2-{4-[(methylamino)methyl]phenyl}-1,3,4,5-tetrahydro-6H-azepino[5,4,3-cd]indol-6-one ((1S,4R)-7,7-dimethyl-2-oxobicyclo[2.2.1]hept-1-yl) methanesulfonic acid salt]
[2]; Elevate temperature 60° C., 5 day
  Crystal form by XRPD after stress: Form D
[2]; Elevate temperature 60° C., 10 day
  Crystal form by XRPD after stress: Form D
[2]; High humidity 92.5% RH, 5 day
  Crystal form by XRPD after stress: Form D
[2]; High humidity 92.5% RH, 10 day
  Crystal form by XRPD after stress: Form D
[2]; Light stress 4500 lux, 5 day
  Crystal form by XRPD after stress: Form D
[2]; Light stress 4500 lux, 10 day
  Crystal form by XRPD after stress: Form D
[2]; high temperature, high humidity and light stress conditions
  Physical stability under stress conditions: stable
[1]; simulated gastric juice
  Solubility in SGF: 310 µg/mL
[1]; simulated gastric juice, low pH, 20 minutes
  Solubility at 20 minutes compared with existing crystalline forms A, B and C: significantly higher
